In the assay the target is T1, glucokinase (GK) (Homo sapiens, UniProt P35557).
T1 construct: I.D. No. 1 corresponds to residues 12-465 of glucokinase; made in house; host or cells: E. coli DH10b-T1r
T1 sequence (P35557 with tags, fused parts or gaps isoform P35557-2): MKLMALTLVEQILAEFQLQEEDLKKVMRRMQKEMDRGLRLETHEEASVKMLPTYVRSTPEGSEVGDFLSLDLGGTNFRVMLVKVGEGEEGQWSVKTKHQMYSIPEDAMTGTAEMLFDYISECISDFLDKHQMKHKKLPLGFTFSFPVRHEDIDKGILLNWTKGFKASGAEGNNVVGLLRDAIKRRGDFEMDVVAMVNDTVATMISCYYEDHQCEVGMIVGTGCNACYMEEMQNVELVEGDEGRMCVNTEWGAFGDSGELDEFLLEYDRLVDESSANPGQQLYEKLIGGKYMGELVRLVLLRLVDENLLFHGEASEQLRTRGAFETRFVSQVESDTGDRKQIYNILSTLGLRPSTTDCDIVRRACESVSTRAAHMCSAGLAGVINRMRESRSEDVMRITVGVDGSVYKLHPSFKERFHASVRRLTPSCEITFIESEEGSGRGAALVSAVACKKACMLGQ
Briefly: enzymatic glucokinase activity assay (ATP consumption, KinaseGlo luminescence). It is filed as biochemical. Particulars: recombinant GK residues 12-465; 5 μM ATP, 5 mM Glucose; Kact = concentration that displays 50% of the maximal increase in GK activity; read-out: pKact. Summed up: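 Recombinant human glucokinase expressed in E. coli was run in 25 mM Hepes pH 7.2 with 10 mM MgCl2, 1 mM DTT, 5 μM ATP, 5 mM glucose and 2% DMSO for 60 min at room temperature. Remaining ATP was read by KinaseGlo luminescence; pKact came from non-linear curve fits.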
For orientation: Kinase-Glo reads ATP consumption through a luciferase reaction.

Where only a bound is given, the exact number is not on record here.

For `O=C(Nc1ncc(F)s1)[C@@H](CC1CCOCC1)n1ccc(S(=O)(=O)C2CCCC2)cc1=O` [Example 33, (R)-2-(4-(cyclopentylsulfonyl)-2-oxopyridin-1(2H)-yl)-N-(5-fluorothiazol-2-yl)-3-(tetrahydro-2H-pyran-4-yl)propanamide], the EC50 was 1.58 to 15.8 µM.

In the case of `Cc1cc(-c2cccc(S(C)(=O)=O)c2)cc(=O)n1[C@@H](CC1CCCCC1)C(=O)Nc1nccs1` [Example 126, (S)-3-cyclohexyl-2-(6-methyl-4-(3-(methylsulfonyl)phenyl)-2-oxopyridin-1(2H)-yl)-N-(thiazol-2-yl)propanamide], the EC50 is above 15.8 µM.

As for `O=C(Nc1nc2cccnc2s1)[C@@H](CC1CCOCC1)n1ccc(S(=O)(=O)C2CC2)cc1=O` [Example 51, (R)-2-(4-(cyclopropylsulfonyl)-2-oxopyridin-1(2H)-yl)-3-(tetrahydro-2H-pyran-4-yl)-N-(thiazolo[5,4-b]pyridin-2-yl)propanamide], the EC50 is above 15.8 µM.

Consider `Cc1occc1S(=O)(=O)c1cc(C)n([C@@H](CC2CCOCC2)C(=O)Nc2ncc(Cl)s2)c(=O)c1` [Example 64, (S)-N-(5-chlorothiazol-2-yl)-2-(6-methyl-4-(2-methylfuran-3-ylsulfonyl)-2-oxopyridin-1(2H)-yl)-3-(tetrahydro-2H-pyran-4-yl)propanamide], for which the EC50 fell in the range of 1.58 to 15.8 µM.

With `COCCC(C)(C)S(=O)(=O)c1ccn([C@H](CC2CCOCC2)C(=O)Nc2nc3ccc(OC)nc3s2)c(=O)c1` [Example 120, (R)-2-(4-(4-methoxy-2-methylbutan-2-ylsulfonyl)-2-oxopyridin-1(2H)-yl)-N-(5-methoxythiazolo[5,4-b]pyridin-2-yl)-3-(tetrahydro-2H-pyran-4-yl)propanamide], the EC50 is above 15.8 µM.

With `Cc1cc(-c2cc3ccccc3o2)cc(=O)n1[C@@H](CC1CCCCC1)C(=O)Nc1nccs1` [Example 104, (S)-2-(4-(benzofuran-2-yl)-6-methyl-2-oxopyridin-1(2H)-yl)-3-cyclohexyl-N-(thiazol-2-yl)propanamide], the EC50 was above 15.8 µM.

For `Cc1cc(S(=O)(=O)C2CCCC2)cc(=O)n1[C@H](CC1CCOCC1)C(=O)Nc1ncc(F)s1` [Example 39, (R)-2-(4-(cyclopentylsulfonyl)-6-methyl-2-oxopyridin-1(2H)-yl)-N-(5-fluorothiazol-2-yl)-3-(tetrahydro-2H-pyran-4-yl)propanamide], the EC50 is above 15.8 µM.

`COc1cccc(-c2cc(C)n([C@@H](CC3CCCCC3)C(=O)Nc3nccs3)c(=O)c2)c1` [Example 95, (S)-3-cyclohexyl-2-(4-(3-methoxyphenyl)-6-methyl-2-oxopyridin-1(2H)-yl)-N-(thiazol-2-yl)propanamide]: the EC50 is 1.58 to 15.8 µM.

`COc1ccc2nc(NC(=O)[C@H](CC3CCOCC3)n3ccc(S(=O)(=O)C4CCCC4)cc3=O)sc2n1` [Example 59, (S)-2-(4-(cyclopentylsulfonyl)-2-oxopyridin-1(2H)-yl)-N-(5-methoxythiazolo[5,4-b]pyridin-2-yl)-3-(tetrahydro-2H-pyran-4-yl)propanamide]: the EC50 is below 1.58 µM.

As to `Cc1cc(-c2ccc(F)c(Cl)c2)cc(=O)n1[C@@H](CC1CCCCC1)C(=O)Nc1nccs1` [Example 106, (S)-2-(4-(3-chloro-4-fluorophenyl)-6-methyl-2-oxopyridin-1(2H)-yl)-3-cyclohexyl-N-(thiazol-2-yl)propanamide], the EC50 is above 15.8 µM.

Turning to `Cc1cc(S(=O)(=O)C2CCCC2)cc(=O)n1C(CC1CC1)C(=O)Nc1nccs1` (centres unmarked) [Example 12, 2-(4-(cyclopentylsulfonyl)-6-methyl-2-oxopyridin-1(2H)-yl)-3-cyclopropyl-N-(thiazol-2-yl)propanamide], the EC50 was in the range of 1.58 to 15.8 µM.
